In patent US20250176602A1, “Composition for Proliferation of Bacteroides uniformis in the Intestinal Tract” (Asahi Group Holdings, Ltd., priority 2019, published 2025):

Experiments:
[1] = Fatigue feeling mitigation test, VAS questionnaire after Aerobike exercise loading (Example 2); assay type: in vivo, human
Protocol: As test subjects, 21 healthy males at the ages of 20 to 49 who have exercise habits of conducting exercise with an intensity of 5 METs or more for 30 minutes or more once or twice a week and who can continue the exercise habits during the test period as well were selected.
Among the 21 test subjects, 10 test subjects were selected as an α-cyclodextrin (αCD) intake group, and the remaining 11 test subjects were selected as a placebo group. The test subjects themselves were not informed who belonged to which group.
Test Supplements (tablets) having compositions described in Table 1 below were used. One tablet of the test supplements was of about 250 mg.
Each test subject of the αCD intake group and the placebo group was asked to take in 3 tablets of the above test supplements once a day at any timing. That is, each test subject of the α-cyclodextrin intake group was asked to take in about 200 mg of α-cyclodextrin per day.
The intake period for the test supplements was set to 9 weeks, and change in gut flora was evaluated, a questionnaire on fatigue feeling was conducted, and change in travel time was evaluated, before the start of the intake, after 4-week intake, and after 8-week intake. Note that foods and beverages that are said to support sports and training, pharmaceutical products and quasi-pharmaceutical products that have recovery, prevention or amelioration of “fatigue”, “tiredness”, “physical strength” and/or “lassitude” as the indication and effects, as well as supplements in general (also including foods with functional claims and foods for specified health use) were prohibited to take in for 1 week counted from the date when the test subjects agreed to participate in the test and during the test period.
The test subjects were subjected to exercise loading (load intensity: at an intensity of 45% of the maximum exercise loading intensity of each test subject for 50 minutes) using Aerobike (trade mark) (manufactured by KONAMI Sports & Life Col., Ltd., model number AEROBIKE-75XLIII), before intake of the test supplements, after 4-week intake, and after 8-week intake. […] Regarding fatigue, a VAS (Visual Analogue Scale) questionnaire was conducted based on the VAS testing method for fatigue feeling established by Japanese Society of Fatigue Science, immediately after loading, 30 minutes after loading, and 60 minutes after loading, to investigate change in fatigue feeling with time. The items of the questionnaire were “general fatigue feeling”, “fatigue feeling of the legs”, “tension of the legs”, “general lassitude”, and “difficulty in breathing”, and the “best state (0 mm)” and the “worst state (100 mm)” in each item were based on criteria shown in Table 2. In each intake group, the amounts of change in measured value were evaluated after 4-week intake and after 8-week intake based on the measured value before intake. […] The significant test between the placebo group and the α-cyclodextrin (αCD) intake group for the general fatigue feeling was conducted by Student's t-test, and the result of the test was summarized as a graph in FIG. 2 (*: p<0.05). In addition, the results for the items “fatigue feeling of the legs”, “tension of the legs”, “general lassitude”, and “difficulty in breathing” were summarized in Table 3. In Table 3, the significant difference was studied by paired t-test for a comparison with before intake of αCD, and the significant test between the placebo group and the α-cyclodextrin (αCD) intake group was conducted by Student's t-test.

[2] = Exercise performance test, 10 km SPIN CYCLE travel time (Example 6); assay type: in vivo, human; conditions: after 8-week intake, about 1000 mg/day; p<0.05
Protocol: As the test subjects, 86 healthy males at the ages of 20 to 49 who have exercise habits of conducting exercise with an intensity of 5 METs or more for 30 minutes or more once or twice a week and who can continue the exercise habits during the test period as well were selected.
Among the 86 test subjects, 43 test subjects were selected as an α-cyclodextrin (αCD) intake group, and the remaining 43 test subjects were selected as a placebo group. The test subjects themselves were not informed who belonged to which group.
Test Supplements (tablets) having compositions described in Table 4 below were used. One tablet of the test supplements was of about 600 mg.
Each test subject of the αCD intake group and the placebo group was asked to take in 4 tablets of the above test supplements once a day at any timing. That is, each test subject of the α-cyclodextrin intake group was asked to take in about 1000 mg of α-cyclodextrin per day.
The intake period for the test supplements was set to 8 weeks, and the heart rate during exercise was measured, before the start of the intake, after 4-week intake, and after 8-week intake to evaluate change in heart rate. In addition, a questionnaire on fatigue feeling was conducted before the start of the intake of the test supplements and after 8-week intake, and change in travel time was evaluated. […]

[3] = system: Bacteroides, Bifidobacterium, and Lactobacillus; conditions: obese mice given high-fat diets, fed α-cyclodextrin; cited from earlier work
[4] = 30 minutes after exercise, after 4-week intake, about 200 mg/day
[5] = 30 minutes after exercise, after 8-week intake, about 200 mg/day
[6] = 30 minutes after exercise, before intake
[7] = 60 minutes after exercise, after 4-week intake, about 200 mg/day
[8] = 60 minutes after exercise, after 8-week intake, about 200 mg/day
[9] = 60 minutes after exercise, before intake
[10] = immediately after exercise, after 4-week intake, about 200 mg/day
[11] = immediately after exercise, after 8-week intake, about 200 mg/day
[12] = immediately after exercise, before intake

With `OC[C@H]1O[C@@H]2O[C@H]3[C@H](O)[C@@H](O)[C@@H](O[C@H]4[C@H](O)[C@@H](O)[C@@H](O[C@H]5[C@H](O)[C@@H](O)[C@@H](O[C@H]6[C@H](O)[C@@H](O)[C@@H](O[C@H]7[C@H](O)[C@@H](O)[C@@H](O[C@H]1[C@H](O)[C@H]2O)O[C@@H]7CO)O[C@@H]6CO)O[C@@H]5CO)O[C@@H]4CO)O[C@@H]3CO` [α-cyclodextrin] the “VAS Difficulty in breathing” value [1, 4] was 17.727 ± 15.300 mm, the “VAS Fatigue feeling of the legs” value [1, 4] was 38.002 ± 21.474 mm and the “VAS General lassitude” value [1, 4] was 27.436 ± 16.724 * mm. For the same compound, the “VAS Tension of the legs” value [1, 4] was 38.015 ± 21.098 mm, the “VAS Difficulty in breathing” value [1, 5] was 16.498 ± 18.581 * mm and the “VAS Fatigue feeling of the legs” value [1, 5] was 28.636 ± 21.115 ** mm. For the same compound, the “VAS General lassitude” value [1, 5] was 24.728 ± 21.853 * mm, the “VAS Tension of the legs” value [1, 5] was 26.662 ± 21.491 ** mm and the “VAS Difficulty in breathing” value [1, 6] was 22.702 ± 23.028 mm. For the same compound, the “VAS Fatigue feeling of the legs” value [1, 6] was 42.045 ± 25.730 mm, the “VAS General lassitude” value [1, 6] was 39.689 ± 21.542 mm and the “VAS Tension of the legs” value [1, 6] was 41.674 ± 26.128 mm. For the same compound, the “VAS Difficulty in breathing” value [1, 7] was 16.907 ± 16.405 mm, the “VAS Fatigue feeling of the legs” value [1, 7] was 31.167 ± 20.034 mm and the “VAS General lassitude” value [1, 7] was 20.932 ± 16.099 mm. For the same compound, the “VAS Tension of the legs” value [1, 7] was 29.904 ± 19.297 mm, the “VAS Difficulty in breathing” value [1, 8] was 12.228 ± 15.335 mm and the “VAS Fatigue feeling of the legs” value [1, 8] was 22.603 ± 21.310 * mm. The “VAS General lassitude” value [1, 8] was 17.754 ± 19.279 * mm, the “VAS Tension of the legs” value [1, 8] was 22.193 ± 22.240 mm and the “VAS Difficulty in breathing” value [1, 9] was 16.882 ± 18.668 mm. The “VAS Fatigue feeling of the legs” value [1, 9] was 34.945 ± 26.504 mm, the “VAS General lassitude” value [1, 9] was 30.096 ± 20.702 mm and the “VAS Tension of the legs” value [1, 9] was 33.394 ± 26.250 mm. The “general fatigue feeling after the exercise (VAS), change vs before intake, compared with placebo group” value ([1]; about 200 mg/day, after 4-week and 8-week intake, p<0.05) was “significantly decreased”, the “VAS Difficulty in breathing” value [1, 10] was 30.597 ± 21.390 * mm and the “VAS Fatigue feeling of the legs” value [1, 10] was 60.911 ± 21.493 mm. The “VAS General lassitude” value [1, 10] was 41.464 ± 17.587 mm, the “VAS Tension of the legs” value [1, 10] was 58.542 ± 25.137 mm and the “VAS Difficulty in breathing” value [1, 11] was 29.033 ± 20.173 ** mm. For the same compound, the “VAS Fatigue feeling of the legs” value [1, 11] was 54.009 ± 23.092 mm, the “VAS General lassitude” value [1, 11] was 39.053 ± 21.314 * mm and the “VAS Tension of the legs” value [1, 11] was 55.137 ± 24.253 mm. The “VAS Difficulty in breathing” value [1, 12] was 44.516 ± 19.027 mm, the “VAS Fatigue feeling of the legs” value [1, 12] was 53.304 ± 25.421 mm and the “VAS General lassitude” value [1, 12] was 51.306 ± 20.273 mm. For the same compound, the “VAS Tension of the legs” value [1, 12] was 59.341 ± 24.644 mm, the “travel time for 10 km, change vs before intake, compared with placebo group” value [2] was “significantly less” and the accumulation of fat [3] was “reductions in accumulation of fat”. For the same compound, the “total bacterial cell numbers of Bacteroides, Bifidobacterium, and Lactobacillus in the intestinal tracts” value [3] was “suppress decreases”.
